Data from ChEMBL document CHEMBL1201862, “PubChem BioAssay data set” (2004).
Activity calls are given as the source filed them.

Experiments:
[1] = molecular target: Voltage-dependent T-type calcium channel subunit alpha-1H (Homo sapiens, UniProt O95180); test: Cav3.2 T-type channel inhibitors, synthesized analogs, SAR follow-up, cell-based, synthetic library set 2, HEK293 HH8, Fluo-4 (AID 493023); type: functional
[2] = molecular target: T1, Heat shock factor protein 1 (Mus musculus, UniProt P38532); test: inhibition of MG132-induced HSE-luciferase signal, confirmation, cell-based, NIH3T3, luminescence, dose retest (AID 2382); type: functional;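 also: NIH3T3 fibroblasts with HSF1-driven luciferase reporter stressed by proteasome inhibitor MG132; luminescence from HSF1-driven luciferase expression after 8 hours of MG132 stress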
T1 sequence (P38532 whole entry): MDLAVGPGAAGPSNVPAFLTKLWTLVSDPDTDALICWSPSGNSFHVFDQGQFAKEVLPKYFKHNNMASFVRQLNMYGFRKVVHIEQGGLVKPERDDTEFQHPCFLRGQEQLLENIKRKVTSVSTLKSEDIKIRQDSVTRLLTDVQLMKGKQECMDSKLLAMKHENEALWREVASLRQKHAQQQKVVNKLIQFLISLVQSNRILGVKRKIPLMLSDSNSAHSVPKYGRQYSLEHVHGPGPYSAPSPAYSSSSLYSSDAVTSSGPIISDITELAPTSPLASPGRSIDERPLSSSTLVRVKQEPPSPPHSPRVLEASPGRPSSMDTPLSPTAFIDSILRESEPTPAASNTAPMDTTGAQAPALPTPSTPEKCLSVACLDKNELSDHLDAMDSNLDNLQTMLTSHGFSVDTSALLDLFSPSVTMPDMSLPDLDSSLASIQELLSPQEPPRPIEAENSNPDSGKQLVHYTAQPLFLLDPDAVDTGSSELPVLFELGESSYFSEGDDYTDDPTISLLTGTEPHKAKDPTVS

[3] = THP-1 cell cytotoxicity, dose response, cytotoxicity control for non-replicating M. tuberculosis project (AID 489025); type: functional
[4] = HepG2 cell cytotoxicity, dose response, cytotoxicity control for non-replicating M. tuberculosis project (AID 489018); type: functional; details: Mycobacterium tuberculosis
[5] = Vero E6 cell cytotoxicity, dose response, cytotoxicity control for non-replicating M. tuberculosis project, secondary assay (AID 492998); type: functional, VeroE6; details: Vero C1008
cells = type: functional
[6] = molecular target: T2, DNA repair protein RAD52 homolog (Homo sapiens, UniProt P43351); type: functional, biochemical
T2 sequence (P43351 whole entry): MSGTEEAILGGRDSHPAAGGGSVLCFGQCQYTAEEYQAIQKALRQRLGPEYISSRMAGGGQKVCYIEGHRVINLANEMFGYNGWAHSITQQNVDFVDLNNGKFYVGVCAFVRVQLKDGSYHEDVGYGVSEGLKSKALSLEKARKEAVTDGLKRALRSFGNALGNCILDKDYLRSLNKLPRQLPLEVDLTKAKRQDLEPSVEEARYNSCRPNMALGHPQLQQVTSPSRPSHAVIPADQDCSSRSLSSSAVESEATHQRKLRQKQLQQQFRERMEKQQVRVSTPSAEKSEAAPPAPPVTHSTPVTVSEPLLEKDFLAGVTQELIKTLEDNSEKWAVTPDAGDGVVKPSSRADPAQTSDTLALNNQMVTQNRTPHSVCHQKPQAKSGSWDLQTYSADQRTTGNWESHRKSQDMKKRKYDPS

[7] = molecular target: DNA damage-inducible transcript 3 protein (Mus musculus, UniProt P35639); type: functional, Cricetulus griseus
[8] = molecular target: T3, Peroxisome proliferator-activated receptor gamma (Homo sapiens, UniProt P37231); test: PPARg ligand-binding domain binders, dose response, PPARg partial agonist project, biochemical, TR-FRET, LanthaScreen (AID 504446)
T3 sequence (P37231 whole entry): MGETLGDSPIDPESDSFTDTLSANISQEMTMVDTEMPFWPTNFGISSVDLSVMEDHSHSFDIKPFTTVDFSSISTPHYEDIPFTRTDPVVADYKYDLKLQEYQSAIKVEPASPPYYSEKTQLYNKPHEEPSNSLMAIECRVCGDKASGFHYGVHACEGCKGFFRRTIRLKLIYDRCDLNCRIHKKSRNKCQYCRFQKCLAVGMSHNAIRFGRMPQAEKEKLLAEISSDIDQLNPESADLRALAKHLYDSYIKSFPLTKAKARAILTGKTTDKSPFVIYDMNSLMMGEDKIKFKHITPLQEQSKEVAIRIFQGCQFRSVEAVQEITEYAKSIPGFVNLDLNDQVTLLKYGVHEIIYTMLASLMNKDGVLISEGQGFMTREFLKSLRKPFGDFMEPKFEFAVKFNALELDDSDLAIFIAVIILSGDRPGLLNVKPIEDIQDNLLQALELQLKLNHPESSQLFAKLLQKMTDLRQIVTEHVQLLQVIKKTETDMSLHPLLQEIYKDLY

[9] = molecular target: T3, Peroxisome proliferator-activated receptor gamma; test: PPARg ligand-binding domain binders, dose response, PPARg partial agonist project, biochemical, fluorescence polarization, PolarScreen (AID 504453)
[10] = molecular target: T3, Peroxisome proliferator-activated receptor gamma; test: PPARg partial agonists, dose response, cell-based, luminescence, assay provider (AID 504447); type: functional
Mucolipin-3 = molecular target: T4, Mucolipin-3 (Homo sapiens, UniProt Q8TDD5); test: Dose response cell-based high-throughput screening assay for agonists of the transient receptor potential channel ML3 (TRPML3). [Related pubchem assays: 1526, 1424, 1448 ]; type: functional
T4 sequence (Q8TDD5 whole entry): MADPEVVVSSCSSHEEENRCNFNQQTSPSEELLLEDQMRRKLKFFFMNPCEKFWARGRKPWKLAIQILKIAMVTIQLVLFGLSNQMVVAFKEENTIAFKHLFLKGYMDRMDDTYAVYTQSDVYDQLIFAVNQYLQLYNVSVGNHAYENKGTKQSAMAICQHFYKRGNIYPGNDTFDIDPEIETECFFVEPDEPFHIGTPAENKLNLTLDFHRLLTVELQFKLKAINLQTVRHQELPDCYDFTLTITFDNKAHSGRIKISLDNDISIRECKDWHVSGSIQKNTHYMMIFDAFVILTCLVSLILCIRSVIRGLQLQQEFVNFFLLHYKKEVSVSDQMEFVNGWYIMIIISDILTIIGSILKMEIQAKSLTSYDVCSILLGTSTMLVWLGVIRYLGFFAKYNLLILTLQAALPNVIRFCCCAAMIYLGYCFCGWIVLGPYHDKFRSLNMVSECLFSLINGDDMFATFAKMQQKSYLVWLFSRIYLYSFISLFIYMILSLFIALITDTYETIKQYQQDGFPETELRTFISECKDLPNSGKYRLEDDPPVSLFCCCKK

[11] = microbe, parasite or virus in culture; type: functional; details: Mycobacterium tuberculosis
Ion channel NompC = Ion channel NompC (Danio rerio, UniProt Q7T1G6); test: Fluorescence counterscreen assay for TRPML3 agonists: dose response cell-based high-throughput screening assay to identify agonists of the transient receptor potential channel N1 (TRPN1). [Related pubchem assays: 1526, 1424, 1448 ]; type: functional
[12] = molecular target: T1, Heat shock factor protein 1; test: HSF1 potentiators in luciferase reporter cells, confirmation, cell-based, NIH3T3, luminescence, dose retest (AID 435004); type: functional;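 also: stress induced by proteasome inhibitor MG132 added 30 min after compound; luciferase reporter driven by HSF1 response element in NIH3T3 cells; actives raise luminescence as potentiators of the MG132 stress response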
[13] = molecular target: Type-1 angiotensin II receptor (Homo sapiens, UniProt P30556); test: AT1 receptor agonists, dose response, selectivity assay for APJ receptor agonist project, cell-based, uHTS hits (AID 488865); type: functional;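 also: beta-arrestin recruitment to AT1 measured by enzyme fragment complementation luminescence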
[14] = molecular target: Heat shock protein HSP 90-alpha (Homo sapiens, UniProt P07900); type: functional, organism-based
[15] = molecular target: T5, High affinity choline transporter 1 (Homo sapiens, UniProt Q9GZV3); test: CHT inhibitors, dose response, cell-based, 5-point CRC, membrane potential dye (AID 504840); type: functional
T5 sequence (Q9GZV3 whole entry): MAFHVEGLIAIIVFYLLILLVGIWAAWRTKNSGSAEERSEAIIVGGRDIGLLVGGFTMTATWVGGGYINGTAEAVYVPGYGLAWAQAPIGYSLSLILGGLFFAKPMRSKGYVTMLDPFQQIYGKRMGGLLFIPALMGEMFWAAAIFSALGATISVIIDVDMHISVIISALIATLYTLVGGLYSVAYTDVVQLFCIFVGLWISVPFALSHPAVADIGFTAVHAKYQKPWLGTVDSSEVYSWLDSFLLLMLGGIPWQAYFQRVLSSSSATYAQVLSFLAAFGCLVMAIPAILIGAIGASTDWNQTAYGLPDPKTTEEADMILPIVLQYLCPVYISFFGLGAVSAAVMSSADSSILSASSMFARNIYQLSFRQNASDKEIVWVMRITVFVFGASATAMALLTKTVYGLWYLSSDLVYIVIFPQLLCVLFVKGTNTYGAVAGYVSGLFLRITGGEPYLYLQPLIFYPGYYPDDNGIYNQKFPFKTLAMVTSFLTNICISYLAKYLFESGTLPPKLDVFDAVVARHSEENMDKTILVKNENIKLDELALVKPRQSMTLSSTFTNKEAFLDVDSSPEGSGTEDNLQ

INS1 = test: beta cell apoptosis inhibitors, cytokine rescue, dose response, luminescence, retest (AID 449756); type: functional, cell-based; details: Rattus norvegicus;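 also: cell death triggered by IL-1 beta plus TNF-alpha plus IFN-gamma mixture; protective hits raise ATP signal compared with cytokine alone wells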
[16] = Fluorescence-based cell-based high throughput dose response assay for inhibitors of the interaction of nucleotide-binding oligomerization domain containing 2 (NOD2) and the receptor-interacting serine-threonine kinase 2 (RIPK2).; type: functional; details: Homo sapiens
Beta Lactamase = Beta Lactamase (Pseudomonas aeruginosa, UniProt Q932Y6); test: beta-lactamase reporter inhibitor potency, dose response, artefact control for NOD2-RIPK2 interaction inhibitor project, BLA reporter cells, FRET fluorescence (AID 651552); type: functional, cell-based
Paired box protein Pax-8 = Paired box protein Pax-8 (Homo sapiens, UniProt Q06710); test: inhibitors of PAX8-driven TPO luciferase reporter, dose response, RMG-I cells, cherry-pick (AID 687027); type: functional, cell-based;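 also: luciferase reporter driven by Pax8 target thyroperoxidase promoter measured by SteadyGlo luminescence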
[17] = Luminescence Cell-Based Dose Response HTS to Identify Inhibitors of Luciferase Translation or Activity in H4-C Neuroglioblastoma Cells. [Related pubchem assays: 1813 (Primary HTS), 1827 (Project Summary)]; type: functional
[18] = Luminescence Cell-Based Dose Response HTS to Identify Activators of Luciferase Translation or Activity in H4-C Neuroglioblastoma Cells. [Related pubchem assays: 1829 (Project Summary), 1814 (Primary HTS)]; type: functional
[19] = inhibitors of firefly luciferase expression or activity, dose response, H4 neuroglioma cells, luminescence (AID 1990); type: functional, cell-based
[20] = Luminescence Cell-Based Dose Retest to Confirm Activators of 5'UTR Stem-Loop Driven Alpha-Synuclein mRNA Translation in H4 Neuroglioblastoma Cells. [Related pubchem assays (depositor defined):AID1813, AID1829]; type: functional
[21] = Luminescence Cell-Based Dose Response HTS to Identify Activators of 5'UTR Stem-Loop Driven Prion Protein mRNA Translation in H4-C Neuroglioblastoma Cells. [Related pubchem assays: 1829 (Project Summary), 1814 (Primary HTS)]; type: functional
[22] = Luminescence Cell-Based Dose HTS Response to Identify Inhibitors of 5'UTR Stem-Loop Driven Prion Protein mRNA Translation in H4-C Neuroglioblastoma Cells. [Related pubchem assays (depositor defined):AID1814, AID1827]; type: functional
[23] = Luminescence Cell-Based Dose Response HTS to Identify Inhibitors of 5'UTR Stem-Loop Driven Prion Protein mRNA Translation in H4 Neuroglioblastoma Cells. [Related pubchem assays: 1827 (Project Summary), 1813 (Primary HTS)]; type: functional
[24] = inhibitors of SNCA 5'UTR-driven reporter translation, confirmation, H4 neuroglioma cells, luminescence (AID 1988); type: functional, cell-based
[25] = Luminescence Cell-Based Dose Confirmation HTS to Identify Inhibitors of 5'UTR Stem-Loop Driven Alpha-Synuclein mRNA Translation in H4 Neuroglioblastoma Cells. [Related pubchem assays: 1827 (Project Summary), 1813 (Primary HTS)]; type: functional
Coagulation factor XII = Coagulation factor XII (Homo sapiens, UniProt P00748); type: functional;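 also: activated factor XIIa alpha cleaving a fluorogenic AMC peptide substrate; inhibitor potency from loss of enzyme activity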
[26] = molecular target: T6, Runt-related transcription factor 1/Core-binding factor subunit beta (Homo sapiens, UniProt Q01196+Q13951); test: inhibitors of RUNX1 Runt–CBFb-SMMHC binding, primary screen, biochemical, FRET, Cerulean-Runt, Venus-CBFb-SMMHC, uHTS (AID 1434); type: protein assay;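 also: partner is the CBFb-SMMHC leukemia fusion protein rather than wild-type CBFb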
[27] = molecular target: T6, Runt-related transcription factor 1/Core-binding factor subunit beta; test: inhibitors of RUNX1 Runt–CBFb-SMMHC binding, biochemical, TR-FRET (AID 1438); type: protein assay
[28] = molecular target: Induced myeloid leukemia cell differentiation protein Mcl-1 (Homo sapiens, UniProt Q07820); type: functional
Chain of Induced myeloid leukemia cell differentiation protein Mcl-1 (Q07820 whole entry): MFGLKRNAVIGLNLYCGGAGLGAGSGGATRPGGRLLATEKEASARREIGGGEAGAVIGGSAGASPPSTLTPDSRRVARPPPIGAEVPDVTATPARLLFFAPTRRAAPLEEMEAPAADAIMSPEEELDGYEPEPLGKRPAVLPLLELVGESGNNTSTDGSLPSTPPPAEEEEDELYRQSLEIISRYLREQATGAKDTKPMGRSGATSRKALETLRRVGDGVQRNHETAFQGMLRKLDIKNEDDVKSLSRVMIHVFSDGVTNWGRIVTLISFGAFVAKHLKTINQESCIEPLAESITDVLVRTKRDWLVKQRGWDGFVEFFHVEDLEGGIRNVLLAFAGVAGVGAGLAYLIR

T6 sequence (Q01196 whole entry, the tested form may be a part): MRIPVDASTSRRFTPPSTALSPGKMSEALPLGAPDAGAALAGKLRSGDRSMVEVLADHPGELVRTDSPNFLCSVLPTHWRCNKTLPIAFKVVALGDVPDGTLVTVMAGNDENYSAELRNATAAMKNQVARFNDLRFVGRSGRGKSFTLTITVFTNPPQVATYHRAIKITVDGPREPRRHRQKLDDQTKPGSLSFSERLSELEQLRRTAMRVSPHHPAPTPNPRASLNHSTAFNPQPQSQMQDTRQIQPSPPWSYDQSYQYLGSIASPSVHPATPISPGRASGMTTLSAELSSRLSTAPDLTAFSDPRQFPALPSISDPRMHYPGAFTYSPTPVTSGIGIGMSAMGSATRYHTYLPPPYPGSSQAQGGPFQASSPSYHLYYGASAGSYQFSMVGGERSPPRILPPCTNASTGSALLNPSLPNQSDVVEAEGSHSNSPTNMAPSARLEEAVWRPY
T6 sequence (Q13951 whole entry, the tested form may be a part): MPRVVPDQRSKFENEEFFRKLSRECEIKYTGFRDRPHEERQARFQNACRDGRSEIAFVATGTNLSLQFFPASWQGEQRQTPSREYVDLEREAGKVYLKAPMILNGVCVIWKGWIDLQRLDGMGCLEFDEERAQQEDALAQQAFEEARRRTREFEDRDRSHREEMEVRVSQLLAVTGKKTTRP
Chain of Type-1 angiotensin II receptor (P30556 whole entry, the tested form may be a part): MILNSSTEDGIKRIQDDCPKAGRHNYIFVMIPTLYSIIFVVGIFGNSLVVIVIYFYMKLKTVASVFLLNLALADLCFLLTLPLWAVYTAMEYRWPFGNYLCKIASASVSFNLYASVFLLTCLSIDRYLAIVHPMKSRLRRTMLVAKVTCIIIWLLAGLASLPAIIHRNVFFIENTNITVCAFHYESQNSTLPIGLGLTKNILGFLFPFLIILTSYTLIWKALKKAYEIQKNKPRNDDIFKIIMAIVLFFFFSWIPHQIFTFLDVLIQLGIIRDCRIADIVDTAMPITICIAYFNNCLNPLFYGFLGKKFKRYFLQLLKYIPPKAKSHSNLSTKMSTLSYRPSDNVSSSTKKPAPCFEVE
Chain of Beta Lactamase (Q932Y6 whole entry): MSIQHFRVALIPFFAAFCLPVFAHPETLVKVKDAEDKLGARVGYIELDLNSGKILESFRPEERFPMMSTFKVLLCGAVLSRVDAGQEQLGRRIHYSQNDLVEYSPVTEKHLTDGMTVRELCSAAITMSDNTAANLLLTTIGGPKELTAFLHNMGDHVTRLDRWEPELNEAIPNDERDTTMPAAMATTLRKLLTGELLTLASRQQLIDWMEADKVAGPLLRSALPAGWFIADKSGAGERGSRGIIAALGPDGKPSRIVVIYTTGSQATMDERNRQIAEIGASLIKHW
Chain of Coagulation factor XII (P00748 20-372 limits assumed): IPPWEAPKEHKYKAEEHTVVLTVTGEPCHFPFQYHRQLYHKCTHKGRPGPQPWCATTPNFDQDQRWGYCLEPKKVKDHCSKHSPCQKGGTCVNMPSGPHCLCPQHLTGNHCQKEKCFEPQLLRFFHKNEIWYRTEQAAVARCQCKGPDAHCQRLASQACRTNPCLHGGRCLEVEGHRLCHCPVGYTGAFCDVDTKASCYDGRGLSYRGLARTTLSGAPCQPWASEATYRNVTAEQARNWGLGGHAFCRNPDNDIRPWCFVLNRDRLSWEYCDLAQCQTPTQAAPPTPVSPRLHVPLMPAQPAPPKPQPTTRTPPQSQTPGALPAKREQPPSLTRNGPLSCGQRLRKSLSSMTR
Chain of Coagulation factor XII (P00748 373-615 limits assumed): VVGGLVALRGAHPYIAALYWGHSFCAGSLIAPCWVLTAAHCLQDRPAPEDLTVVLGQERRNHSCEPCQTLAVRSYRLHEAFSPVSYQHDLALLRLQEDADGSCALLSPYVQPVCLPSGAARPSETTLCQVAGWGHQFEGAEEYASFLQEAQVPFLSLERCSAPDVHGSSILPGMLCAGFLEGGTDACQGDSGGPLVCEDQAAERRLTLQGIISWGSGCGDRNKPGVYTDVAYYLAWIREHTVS
Chain of Ion channel NompC (Q7T1G6 whole entry): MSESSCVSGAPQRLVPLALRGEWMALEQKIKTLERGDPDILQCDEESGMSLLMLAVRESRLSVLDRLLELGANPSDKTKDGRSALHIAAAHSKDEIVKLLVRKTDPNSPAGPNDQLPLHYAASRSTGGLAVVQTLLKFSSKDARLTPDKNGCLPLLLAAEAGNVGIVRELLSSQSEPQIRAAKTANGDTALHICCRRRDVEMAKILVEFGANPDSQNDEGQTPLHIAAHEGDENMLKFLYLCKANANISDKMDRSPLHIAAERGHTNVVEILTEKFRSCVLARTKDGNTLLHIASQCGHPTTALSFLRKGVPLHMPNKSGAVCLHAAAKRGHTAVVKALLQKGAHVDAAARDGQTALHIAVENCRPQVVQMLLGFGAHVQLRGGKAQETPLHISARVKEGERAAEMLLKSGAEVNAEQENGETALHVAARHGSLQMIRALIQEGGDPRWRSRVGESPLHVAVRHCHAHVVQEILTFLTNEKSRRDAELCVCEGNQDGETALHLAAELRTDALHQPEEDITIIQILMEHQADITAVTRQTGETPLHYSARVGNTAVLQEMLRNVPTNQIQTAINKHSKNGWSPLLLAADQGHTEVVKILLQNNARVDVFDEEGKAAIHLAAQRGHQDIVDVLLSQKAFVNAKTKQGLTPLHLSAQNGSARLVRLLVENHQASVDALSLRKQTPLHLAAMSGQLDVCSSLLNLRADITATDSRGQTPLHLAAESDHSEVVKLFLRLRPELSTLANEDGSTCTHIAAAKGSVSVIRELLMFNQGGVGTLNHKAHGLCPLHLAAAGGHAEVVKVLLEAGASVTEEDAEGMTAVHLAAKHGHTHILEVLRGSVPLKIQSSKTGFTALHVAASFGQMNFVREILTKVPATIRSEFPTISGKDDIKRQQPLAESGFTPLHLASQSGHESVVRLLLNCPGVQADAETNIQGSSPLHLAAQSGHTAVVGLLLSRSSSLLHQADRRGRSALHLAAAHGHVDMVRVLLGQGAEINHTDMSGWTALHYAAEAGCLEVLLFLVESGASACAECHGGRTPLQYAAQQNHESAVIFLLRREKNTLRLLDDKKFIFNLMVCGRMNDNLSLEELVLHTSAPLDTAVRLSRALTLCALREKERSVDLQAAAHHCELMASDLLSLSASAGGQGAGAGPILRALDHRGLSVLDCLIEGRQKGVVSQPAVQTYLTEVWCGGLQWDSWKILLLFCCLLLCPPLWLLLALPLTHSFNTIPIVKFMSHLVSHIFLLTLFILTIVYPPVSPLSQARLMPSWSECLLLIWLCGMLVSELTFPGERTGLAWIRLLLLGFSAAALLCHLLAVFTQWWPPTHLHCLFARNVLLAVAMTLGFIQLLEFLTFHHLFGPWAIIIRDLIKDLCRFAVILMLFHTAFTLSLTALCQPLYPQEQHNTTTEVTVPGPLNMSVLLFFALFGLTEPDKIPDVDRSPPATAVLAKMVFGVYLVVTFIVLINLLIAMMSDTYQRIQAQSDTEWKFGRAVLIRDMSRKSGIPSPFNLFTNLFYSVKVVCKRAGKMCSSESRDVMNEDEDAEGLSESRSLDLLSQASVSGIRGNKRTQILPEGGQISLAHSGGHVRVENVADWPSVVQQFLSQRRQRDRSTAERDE
Chain of DNA damage-inducible transcript 3 protein (P35639 whole entry, the tested form may be a part): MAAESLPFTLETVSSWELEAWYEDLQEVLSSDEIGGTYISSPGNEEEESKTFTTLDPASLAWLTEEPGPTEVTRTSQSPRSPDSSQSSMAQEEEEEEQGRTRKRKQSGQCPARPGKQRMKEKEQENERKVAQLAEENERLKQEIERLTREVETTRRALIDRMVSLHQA
Chain of Paired box protein Pax-8 (Q06710 whole entry): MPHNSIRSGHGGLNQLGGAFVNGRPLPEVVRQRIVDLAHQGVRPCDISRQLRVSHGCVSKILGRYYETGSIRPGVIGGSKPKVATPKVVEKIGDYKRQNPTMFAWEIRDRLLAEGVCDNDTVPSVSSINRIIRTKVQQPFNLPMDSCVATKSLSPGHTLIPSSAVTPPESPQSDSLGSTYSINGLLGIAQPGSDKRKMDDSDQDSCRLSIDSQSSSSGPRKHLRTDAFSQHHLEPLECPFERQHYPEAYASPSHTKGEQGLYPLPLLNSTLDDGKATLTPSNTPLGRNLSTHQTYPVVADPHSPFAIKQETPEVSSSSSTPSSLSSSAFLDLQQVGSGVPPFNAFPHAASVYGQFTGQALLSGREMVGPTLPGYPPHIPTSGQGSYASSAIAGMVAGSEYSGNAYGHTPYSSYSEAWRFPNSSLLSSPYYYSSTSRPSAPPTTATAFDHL

Structure (SMILES): O=C(COc1ccc(F)c(Cl)c1)N[C@@H]1CCCN(Cc2ccccc2)C1
- EC50 [1]: 10 µM (active)

Structure (SMILES): CCN(CC)CCCN(C(=O)c1ccco1)c1nc(-c2ccc(C)cc2)cs1
- EC50 [2]: > 195 µM (not active)
- CC50 [3]: 38.2 µM (active)
- CC50 [4]: > 20 µM (active)
- CC50 [5]: > 20 µM (active)
- IC50 (cells): 44.2 µM (active)
- AC50 [6]: 20.7 µM (active)

Structure (SMILES): O=C(c1ccc(Cl)cc1)N1CCC(O)(CSc2ccc(Cl)cc2Cl)CC1
- Absolute IC50 (CHOP) [7]: 10 µM

Structure (SMILES): CCOc1ccc2nc(N3C(=O)C(O)=C(C(=O)c4ccco4)C3c3ccco3)sc2c1 (stereo not given)
- IC50 [8]: 8.2 µM (inactive)
- IC50 [9]: 3 µM (active)
- EC50 [10]: 1.2 µM (active)

Structure (SMILES): CC1=CC(=O)C(C(C)C)=C/C1=N/OS(=O)(=O)c1ccccc1
- EC50 (Mucolipin-3): > 29.9 µM (not active)
- CC50 [11]: 9.69 µM (active)
- EC50 (Ion channel NompC): > 29.9 µM (not active)
- EC50 [12]: 4.19 µM (active)
- EC50 [13]: > 100 µM (inactive)
- AC50 [14]: 3.61 µM (active)
- IC50 [15]: 12 µM (active)
- AC50 (INS1): 1.06 µM (active)
- IC50 [16]: 7.38 µM (active)
- IC50 (Beta Lactamase): 49.8 µM (inactive)
- AC50 (Paired box protein Pax-8): 6.97 µM (active)

Structure (SMILES): Cc1cc(C)cc(Nc2nc3ccc(C)cc3n3cnnc23)c1
- EC50 [17]: 20.5 µM (active)
- EC50 [18]: 20.5 µM (inconclusive)
- EC50 [19]: > 120 µM (not active)
- EC50 [20]: 16.6 µM (inconclusive)
- EC50 [21]: > 195 µM (inconclusive)
- EC50 [22]: > 195 µM (inactive)
- EC50 [23]: > 120 µM (not active)
- EC50 [24]: 2.82 µM (active)
- EC50 [25]: 16.6 µM (active)

Structure (SMILES): CCCCCCCCCCCC(=O)N1CC(=O)NC(=O)C1
- IC50 (Coagulation factor XII): > 50 µM (inactive)

Structure (SMILES): Nc1c(C(=O)NCCN2CCOCC2)c2nc3ccccc3nc2n1Cc1ccco1
- IC50 [26]: 1.19 µM (active)
- IC50 [27]: > 100 µM (inactive)
- IC50 [28]: 6.49 µM (not active)
